By inhibition is commonly meant the percentage by which the read-out fell short of the control. Usually inhibition in vivo stands for how much of the control response was suppressed. Low values mean little suppression, high ones strong suppression.

We go through eight molecules from ChEMBL document CHEMBL1147420, “Synthesis and biological evaluation of novel coumarin derivatives with a 7-azomethine linkage” (2004).

What all share (type): functional
The target in test [1] is Chymotrypsinogen B (Homo sapiens) (UniProt P17538). Description: Compound was evaluated for in vitro inhibition of chymotrypsinogen acting as esterase at 1 mM concentration.
In test [2] the target is Serine protease 1 (Homo sapiens) (UniProt P07477). Description: Compound was evaluated for in vitro inhibition of trypsin acting as esterase at 0.1 mM concentration.
Test [3] addresses Chymotrypsinogen B (Homo sapiens) (UniProt P17538). Description: Compound was evaluated for in vitro inhibition of chymotrypsinogen induced proteolysis at 0.1 mM concentration.
A short description of test [4]: Interaction percent with DPPH after 20 minutes was determined at 0.1 mM concentration. For orientation: Loss of DPPH colour is used to gauge radical scavenging.
Test [5] deals with Serine protease 1 (Homo sapiens) (UniProt P07477). As to the kind of experiment: Compound was evaluated for in vitro inhibition of trypsin induced proteolysis at 1 mM concentration.
Test [6] is described as follows: Interaction percent with DPPH after 60 minutes was determined at 0.5 mM concentration.
The target of test [7] is T1, Seed linoleate 13S-lipoxygenase-1 (Glycine max) (UniProt P08170).
T1 sequence (whole entry): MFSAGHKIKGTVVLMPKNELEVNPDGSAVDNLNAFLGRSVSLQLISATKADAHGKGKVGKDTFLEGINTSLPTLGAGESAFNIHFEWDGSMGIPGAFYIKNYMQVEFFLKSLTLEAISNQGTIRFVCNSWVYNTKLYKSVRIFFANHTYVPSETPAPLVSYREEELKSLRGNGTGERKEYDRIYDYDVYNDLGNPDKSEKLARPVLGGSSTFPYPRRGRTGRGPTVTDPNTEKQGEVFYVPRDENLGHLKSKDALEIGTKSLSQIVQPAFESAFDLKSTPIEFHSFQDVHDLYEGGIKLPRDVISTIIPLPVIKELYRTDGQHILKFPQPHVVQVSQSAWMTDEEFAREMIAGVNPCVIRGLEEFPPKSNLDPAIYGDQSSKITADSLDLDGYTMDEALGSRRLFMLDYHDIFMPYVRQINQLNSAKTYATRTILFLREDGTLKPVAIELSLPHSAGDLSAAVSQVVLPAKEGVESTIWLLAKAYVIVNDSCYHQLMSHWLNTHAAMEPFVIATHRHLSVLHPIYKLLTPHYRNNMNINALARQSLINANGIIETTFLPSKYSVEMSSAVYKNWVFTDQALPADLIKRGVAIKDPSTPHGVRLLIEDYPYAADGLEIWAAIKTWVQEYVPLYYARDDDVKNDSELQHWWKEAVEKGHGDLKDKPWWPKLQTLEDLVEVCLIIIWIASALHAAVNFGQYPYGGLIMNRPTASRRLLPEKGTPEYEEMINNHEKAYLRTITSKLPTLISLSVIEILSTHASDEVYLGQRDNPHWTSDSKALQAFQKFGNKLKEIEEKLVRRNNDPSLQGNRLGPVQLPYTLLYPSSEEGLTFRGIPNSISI
As to the kind of experiment: Compound was evaluated for in vitro inhibition of soybean lipoxygenase at 1 mM concentration.

A short description of test [8]: Interaction percent with DPPH after 60 minutes was determined at 0.1 mM concentration.
In test [9] the target is Chymotrypsinogen B (Homo sapiens) (UniProt P17538). Description: Compound was evaluated for in vitro inhibition of chymotrypsinogen acting as esterase at 0.1 mM concentration.
Test [10] is described as follows: Interaction percent with DPPH after 20 minutes was determined at 0.5 mM concentration.
For test [11], the target named is Serine protease 1 (Homo sapiens) (UniProt P07477). Description: Compound was evaluated for in vitro inhibition of trypsin acting as esterase at 1 mM concentration.
Test [12] addresses Chymotrypsinogen B (Homo sapiens) (UniProt P17538). As to the kind of experiment: Compound was evaluated for in vitro inhibition of chymotrypsinogen induced proteolysis at 1 mM concentration.
Test [13] concerns the target Serine protease 1 (Homo sapiens) (UniProt P07477). Description: Compound was evaluated for in vitro inhibition of trypsin induced proteolysis at 0.1 mM concentration.
A short description of test [14]: Compound was evaluated for percent inhibition of carrageenan induced rat paw edema at 0.005 mmol/kg. (In general: Carrageenan injected into the paw causes an acute inflammation.)
Test [15] can be described thus: Competition percent of compound with DMSO for hydroxyl radical was determined at 0.1 mM concentration.
Test [16] in a line: Competition percent of compound with DMSO for hydroxyl radical was determined at 0.01 mM concentration.
The target in test [17] is T2, Beta-glucuronidase (Bos taurus) (UniProt A3KMY8).
T2 sequence (whole entry): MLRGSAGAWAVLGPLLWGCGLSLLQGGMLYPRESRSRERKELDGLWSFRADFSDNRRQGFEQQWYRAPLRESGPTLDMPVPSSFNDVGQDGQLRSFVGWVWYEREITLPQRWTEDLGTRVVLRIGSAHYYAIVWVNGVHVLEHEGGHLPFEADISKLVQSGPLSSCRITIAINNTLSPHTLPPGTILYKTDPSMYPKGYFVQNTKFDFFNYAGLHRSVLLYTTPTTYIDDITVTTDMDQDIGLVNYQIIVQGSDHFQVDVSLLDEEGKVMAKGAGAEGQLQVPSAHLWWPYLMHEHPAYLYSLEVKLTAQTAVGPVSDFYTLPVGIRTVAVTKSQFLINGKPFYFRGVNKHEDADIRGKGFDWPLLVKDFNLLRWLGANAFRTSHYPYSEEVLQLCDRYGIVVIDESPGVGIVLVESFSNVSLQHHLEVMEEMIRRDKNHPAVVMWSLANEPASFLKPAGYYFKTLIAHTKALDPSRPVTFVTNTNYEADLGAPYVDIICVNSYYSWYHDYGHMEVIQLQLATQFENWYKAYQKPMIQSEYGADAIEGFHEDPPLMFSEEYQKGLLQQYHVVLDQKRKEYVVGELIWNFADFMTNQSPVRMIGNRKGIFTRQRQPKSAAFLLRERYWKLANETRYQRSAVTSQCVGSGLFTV
Description: Compound was evaluated for in vitro inhibition of beta-glucuronidase at 1 mM concentration.

In test [18] the target is T2, Beta-glucuronidase (Bos taurus). As to the kind of experiment: Compound was evaluated for in vitro inhibition of beta-glucuronidase at 0.1 mM concentration.
Test [19] can be described thus: Interaction percent with DPPH after 20 minutes was determined at 0.2 mM concentration.
Test [20] is described as follows: Interaction percent with DPPH after 60 minutes was determined at 0.2 mM concentration.
The target of test [21] is Chymotrypsinogen B (Homo sapiens) (UniProt P17538). Description: Compound was evaluated for in vitro inhibition of chymotrypsinogen induced proteolysis at 0.1 mM concentration; no action.
Test [22] has as its target T1, Seed linoleate 13S-lipoxygenase-1 (Glycine max). As to the kind of experiment: Compound was evaluated for in vitro inhibition of soybean lipoxygenase at 0.1 mM concentration; no action.
Test [23] shares this target. Description: Compound was evaluated for in vitro inhibition of soybean lipoxygenase at 0.1 mM concentration.
The target of test [24] is T2, Beta-glucuronidase (Bos taurus). As to the kind of experiment: Compound was evaluated for in vitro inhibition of beta-glucuronidase at 0.1 mM concentration; […].

Each structure is given as a SMILES string.

Sequence of Serine protease 1 (Homo sapiens) (P07477 whole entry): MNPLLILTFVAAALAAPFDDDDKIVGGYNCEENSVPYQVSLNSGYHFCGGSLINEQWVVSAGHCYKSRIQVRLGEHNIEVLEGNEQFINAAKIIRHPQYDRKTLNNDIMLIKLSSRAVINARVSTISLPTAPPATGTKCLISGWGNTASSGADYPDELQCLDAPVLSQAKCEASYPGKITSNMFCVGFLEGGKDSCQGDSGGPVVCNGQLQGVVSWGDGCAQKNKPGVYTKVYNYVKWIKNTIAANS
Sequence of Chymotrypsinogen B (Homo sapiens) (P17538 34-164 limits assumed, other chains not shown): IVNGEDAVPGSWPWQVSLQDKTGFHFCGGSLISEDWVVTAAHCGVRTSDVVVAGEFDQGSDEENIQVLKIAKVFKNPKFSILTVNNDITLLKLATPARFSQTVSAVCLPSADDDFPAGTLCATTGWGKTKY
Sequence of Chymotrypsinogen B (Homo sapiens) (P17538 167-263 limits assumed, other chains not shown): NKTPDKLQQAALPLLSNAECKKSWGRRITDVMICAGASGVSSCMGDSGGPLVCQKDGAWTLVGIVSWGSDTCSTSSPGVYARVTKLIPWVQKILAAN

For `O=c1ccc2ccccc2o1` [COUMARIN], the inhibition in test [1] is 63.9%; in [2], 5%; in test [3], “No action”; in test [5] it was 95.9%; in [7], 15.1%; in [9], 28.5%. Also, the inhibition in test [11] was determined as 98%; in test [12], 89.3%; in test [13], 12.7%. The RA stood at 4.9% in [4], 6.7% in [6], 21% in [8] and 5.8% in [10]. For the same molecule, the inhibition in vivo at 5 µmol/kg in test [14] amounted to 30.2%. In [15], the Competition was 78%.

On to `CO/N=C/c1ccc2ccc(=O)oc2c1`, for which the inhibition was 100% in test [1]; 25.5% in test [2]; 94.1% in test [17]; 100% in test [5]; 100% in [7]; 21.9% in test [18]. Moreover, the inhibition result was “No action” in test [21]; 16.6% in test [9]; “No action” in [22]; 99.9% in [11]; 56.9% in test [12]; 100% in test [13]. Further, the results for the Competition in test [16] and in test [15] were 85.6% and 90.2%, respectively. The RA is 12.7% in test [4]; 11.9% in [6]; 9.8% in test [8]; 14.5% in test [19]; 11.6% in test [20]; 13.9% in test [10]. In [14], this molecule had an inhibition in vivo at 5 µmol/kg of 31.1%.

Regarding `COc1ccc2c(c1)c(CC(=O)O)c(C)n2C(=O)c1ccc(Cl)cc1` [INDOMETHACIN], the inhibition in vivo at 5 µmol/kg in test [14] was 47%.

For `O=c1ccc2ccc(/C=N/c3ccccc3)cc2o1`, the inhibition was 83.4% in test [1]; 22.6% in [2]; 90.5% in test [3]; 95.4% in test [17]; 95.9% in [5]; 100% in test [7]. For the same molecule, the inhibition in [18] amounted to 26.1%; in test [23], 54.3%; in [9], 10%; in test [11] it was 97.6%; in [12], 73.9%; in test [13], 35.3%. Moreover, the Competition in test [16] came out at 72.2%; in [15], 89.6%. Further, the RA stood at 12.9% in test [4]; 11.6% in test [6]; 10% in test [8]; 13.5% in test [19]; 10.6% in [20]; 14.3% in test [10]. The molecule also yielded an inhibition in vivo at 5 µmol/kg in test [14] of 42.5%.

As to `O=c1ccc2ccc(/C=N/N=C/c3ccc4ccc(=O)oc4c3)cc2o1`, the inhibition was determined as 65.2% in test [1]; 9.4% in test [2]; 24.5% in test [3]; 100% in test [17]; 100% in test [5]; 10.2% in test [7]. The inhibition in [18] was 2.3%; in [23], 8.6%; in test [9], 29.9%; in test [11], 65.4%; in test [12], 100%; in test [13], 99.9%. The Competition in test [16] came out at 44.5%; in test [15], 45.3%. For the same molecule, the RA was found to be 7.04% in test [4]; 67.5% in test [6]; 9.9% in test [8]; 6.3% in [19]; 8.4% in [20]; 64.4% in test [10]. This molecule showed an inhibition in vivo at 5 µmol/kg in test [14] of 54%.

In the case of `O=Cc1ccc2ccc(=O)oc2c1`, the inhibition in [1] worked out at 98.9%; in [2] it was 12.6%; in test [3], 32.8%; in [17] it was 98.9%; in [5] it was 100%; in test [7], 89.7%. The inhibition result was “No action” in test [24]; 8.6% in test [23]; 22.7% in test [9]; 99.1% in test [11]; 96.6% in [12]; 83.4% in [13]. The Competition came to 33.9% in test [16] and 35.2% in test [15]. The RA in test [4] stood at 1.47%; in test [6], 12.8%; in test [8] it was 3.5%; in [19], 2.49%; in test [20], 7.1%; in test [10], 16.2%. The molecule further displayed an inhibition in vivo at 5 µmol/kg in [14] of 29.3%.

With `O=c1ccc2ccc(/C=N/O)cc2o1`, the inhibition in [1] is 100%; in test [2] it was 20.3%; in test [3], 37.4%; in test [17], 100%; in test [5] it was 77.7%; in [7], 98.8%. The inhibition result was “No action” in [24]; 37.2% in test [23]; 28.5% in [9]; 98.5% in test [11]; 98.7% in test [12]; 70.7% in test [13]. Moreover, the Competition in test [16] came out at 43.4%; in test [15], 50.8%. The RA was 0.29% in test [4]; 12.8% in [6]; 4.8% in test [8]; 3.52% in test [19]; 7.1% in test [20]; 9.7% in test [10]. Also, in test [14], the inhibition in vivo at 5 µmol/kg was determined as 58.6%.

Turning to `Cc1ccc2ccc(=O)oc2c1`, the inhibition in [1] amounted to 97.7%; in test [2], 13.6%; in [3] it was 48.1%; in [17] it was 95.9%; in [5] it was 100%; in test [7], 88.9%. Further, the inhibition entry in [24] is “No action”; in test [23] it was 73.5%; in test [9], 16.4%; in test [11] it was 88.7%; in test [12] it was 97.4%; in test [13], 90.4%. In addition, the Competition in [16] amounted to 30.2%; in [15], 43.8%. Further, the RA in test [4] came to 0.29%; in test [6] it was 3.5%; in [8], 2.5%; in test [19], 1.61%; in test [20], 5.4%; in [10], 2.05%. In test [14], this molecule yielded an inhibition in vivo at 5 µmol/kg of 55.1%.
